Some test systems named below: NCI-H522 lung; SF-295 CNS; NCI-H460 lung; SK-OV-3 ovarian; HT29 colon; T-47D breast; SW-620 colon; UACC-62 melanoma; UACC-257 melanoma; NCI-H23 lung; 786-0 renal; MOLT-4 leukemia; HOP-92 NSCLC; NCI-H226 lung; TK-10 renal; SNB-19 CNS; CCRF-CEM leukemia; MALME-3M melanoma; BT-549 breast.
Assay in all cases: NCI-60 cell line screen, 48 h

SMILES strings stand for the structures.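 Tested at 5 concentrations; 48 h exposure; 96-well plates; endpoints linearly interpolated, else capped at highest concentration. Definition used: TGI = concentration required for complete inhibition of growth.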

Take `C=CC(C)(C)C(=C)C(=O)N(C)c1ccccc1I`: the TGI in the assay on NCI-H522 lung, with SF-295 CNS, in the assay on NCI-H460 lung, in the assay with SK-OV-3 ovarian, in the assay on HT29 colon and in the assay on T-47D breast was more than 100 µM each time. Besides, the TGI in the assay on SW-620 colon, with UACC-62 melanoma, in the assay on UACC-257 melanoma, with NCI-H23 lung, in the assay with 786-0 renal and in the assay on MOLT-4 leukemia was more than 100 µM throughout. The TGI in the assay with HOP-92 NSCLC, in the assay with NCI-H226 lung, in the assay with TK-10 renal, in the assay with SNB-19 CNS and in the assay with CCRF-CEM leukemia was more than 100 µM throughout.
As for `COc1cc(Cl)cc(N(O)C(C)=O)c1OCc1ccccc1`, the TGI with NCI-H522 lung, with MALME-3M melanoma, in the assay with SF-295 CNS, in the assay on NCI-H460 lung, in the assay with SK-OV-3 ovarian and in the assay with HT29 colon was more than 100 µM throughout. Further, the TGI in the assay with SW-620 colon, with UACC-62 melanoma, in the assay with UACC-257 melanoma, with NCI-H23 lung, in the assay on 786-0 renal and in the assay with MOLT-4 leukemia was more than 100 µM each time. In addition, the TGI with HOP-92 NSCLC, in the assay with NCI-H226 lung, with TK-10 renal, in the assay on SNB-19 CNS and in the assay with CCRF-CEM leukemia was more than 100 µM throughout.
With `O=c1c2c(c1=O)C1(SCCCS1)c1cc(Cl)ccc1O2`, the TGI in the assay on NCI-H522 lung, with MALME-3M melanoma, with SF-295 CNS, with NCI-H460 lung, in the assay on SK-OV-3 ovarian and in the assay on HT29 colon was more than 100 µM each time. For the same compound, the TGI in the assay with BT-549 breast, in the assay with SW-620 colon, with UACC-62 melanoma, in the assay on UACC-257 melanoma, in the assay on NCI-H23 lung and in the assay with 786-0 renal was more than 100 µM in each case. For the same compound, the TGI in the assay on MOLT-4 leukemia, in the assay on HOP-92 NSCLC, in the assay on NCI-H226 lung, in the assay on TK-10 renal, with SNB-19 CNS and with CCRF-CEM leukemia was more than 100 µM in each case.
Turning to `C/C(=N\Nc1ccccc1Br)c1cccc(/C(C)=N/Nc2ccccc2Br)n1`, the TGI in the assay with MALME-3M melanoma, in the assay on SF-295 CNS, in the assay on NCI-H460 lung, with HT29 colon, in the assay with BT-549 breast and in the assay with SW-620 colon was more than 100 µM in each case. For the same compound, the TGI in the assay with UACC-257 melanoma, in the assay on NCI-H23 lung, in the assay with 786-0 renal, with MOLT-4 leukemia, with HOP-92 NSCLC and in the assay on NCI-H226 lung was more than 100 µM in each case. Also, the TGI in the assay on TK-10 renal, in the assay with SNB-19 CNS and in the assay on CCRF-CEM leukemia was more than 100 µM each time.
Turning to `COc1cc2c(cc1OC)CC(=O)c1cc(OC)c(OC)cc1/C=C\2`, the TGI in the assay on NCI-H522 lung, in the assay on MALME-3M melanoma, in the assay on SF-295 CNS, with NCI-H460 lung, with SK-OV-3 ovarian and in the assay on HT29 colon was more than 12.5 µM throughout. Also, the TGI with SW-620 colon, in the assay on UACC-62 melanoma, in the assay on UACC-257 melanoma, in the assay with NCI-H23 lung, with 786-0 renal and in the assay with MOLT-4 leukemia was more than 12.5 µM each time. Also, the TGI in the assay on HOP-92 NSCLC, in the assay on NCI-H226 lung, with TK-10 renal, in the assay with SNB-19 CNS and in the assay with CCRF-CEM leukemia was more than 12.5 µM throughout.
With `CCC(CC)n1cc(C(=O)NC(=O)NCCCCCOC(=O)CCCCCCCCCCC(=O)OCCCCCNC(=O)NC(=O)c2cn(C(CC)CC)c(=O)[nH]c2=O)c(=O)[nH]c1=O`, the TGI in the assay on NCI-H522 lung, in the assay on MALME-3M melanoma, in the assay on SF-295 CNS, with NCI-H460 lung, in the assay on SK-OV-3 ovarian and with HT29 colon was more than 100 µM in each case. The TGI in the assay with SW-620 colon, in the assay with UACC-62 melanoma, with UACC-257 melanoma, in the assay with NCI-H23 lung, with 786-0 renal and in the assay with MOLT-4 leukemia was more than 100 µM each time. Also, the TGI in the assay on HOP-92 NSCLC, in the assay on NCI-H226 lung, with TK-10 renal, with SNB-19 CNS and in the assay on CCRF-CEM leukemia was more than 100 µM throughout.
As to `Cc1cc(OCc2nn(CN3CCN(C)CC3)c(=S)n2/N=C/c2ccc(-c3ccc(Cl)cc3Cl)o2)ccc1Cl`, the TGI was 59 µM in the assay with NCI-H522 lung; more than 100 µM with SF-295 CNS; more than 100 µM in the assay on NCI-H460 lung; more than 100 µM in the assay on SK-OV-3 ovarian; more than 100 µM in the assay with HT29 colon; more than 100 µM with T-47D breast. Also, the TGI in the assay with SW-620 colon is 51 µM; in the assay on UACC-257 melanoma, more than 100 µM; in the assay with NCI-H23 lung, more than 100 µM; with 786-0 renal it was more than 100 µM; with MOLT-4 leukemia, more than 100 µM; with HOP-92 NSCLC it was 95.9 µM. In addition, the TGI with NCI-H226 lung, in the assay with TK-10 renal and in the assay with CCRF-CEM leukemia was more than 100 µM each time.
On to `NC1=NNC2(C(=O)N1)c1ccccc1-c1ccccc12`, for which the TGI in the assay on MALME-3M melanoma, in the assay with SF-295 CNS, in the assay on NCI-H460 lung, in the assay with SK-OV-3 ovarian, with T-47D breast and in the assay with SW-620 colon was more than 10 µM throughout. In addition, the TGI in the assay on NCI-H23 lung, in the assay on 786-0 renal, in the assay on MOLT-4 leukemia, in the assay with HOP-92 NSCLC, in the assay with NCI-H226 lung and in the assay on TK-10 renal was more than 10 µM in each case. Also, the TGI with SNB-19 CNS and in the assay on CCRF-CEM leukemia was more than 10 µM in each case.

(Values after PubChem BioAssay (NCI).)
